From PMC12238850, “Molecular determinants for recognition of serotonylated chromatin” (Nucleic Acids Research, 2025)
Like-named read-outs stand apart in the source and are kept apart here.

Molecular target: T1, Taf3-PHD (residues 857–924) (Mus musculus, UniProt Q5HZG4)
T1 construct: PHD finger of Taf3 (residues 857–924) in NMR buffer; GST (N, cleaved yes); made in house; host or cells: E. coli BL21(DE3), M9 minimal medium (13C/15N)
T1 sequence (Q5HZG4 857-924): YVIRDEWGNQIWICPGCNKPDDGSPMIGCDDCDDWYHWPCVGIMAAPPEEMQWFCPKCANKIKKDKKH
Experiment: NMR titration line shape analysis (TITAN), wild-type Taf3-PHD
Format: binding
Description: The ^13C- and ^15N-labelled Taf3-PHD NMR samples were purified as described above, with minor differences. A single colony of freshly transformed BL21(DE3) E. coli was grown in a synthetic M9 minimal medium (6.0 g/l Na2HPO4·2H2O, 3.0 g/l KH2PO4, 0.5 g/l NaCl, 25 mg/l MgSO4, 290 μg/l CaCl2, 1 μg/l FeSO4·7H2O, 270 μg/l ZnCl2, and 5 mg/l thiamine) containing 2.0 g/l ^13C-glucose as the only carbon source and 0.5 g/l ^15NH4Cl as the sole nitrogen source. Protein expression, lysis, and loading to Glutathione Sepharose™ column were performed as described above. The GST-tag was removed through on-column thrombin digestion by loading excess thrombin (SERVA) in wash buffer followed by overnight digestion at 4°C. The cleaved PHD moiety with a […] N-terminal extension (Gly–Ser–His–Met–Ala–Met–Ala) remaining from the thrombin cleavage site was collected from the flow-through and further purified in a Mono Q™ 10/100 GL as before and subsequently loaded to a Superdex-75 HiLoad 16/600 gel filtration column in NMR buffer (20 mM KPi, pH 7.0, 150 mM KCl, 10 μM ZnCl2) (Supplementary Fig. S1).
All data were recorded at 298 K on a Bruker Avance III HD 900 MHz spectrometer equipped with a cryoprobe, unless noted otherwise. Sample for assignment verification contained 0.3 mM ^13C- and ^15N-labelled PHD finger of Taf3 (residues 857–924) in NMR buffer (20 mM KPi, pH 7.0, 150 mM KCl, 10 μM ZnCl2, 0.01% NaN3, 10% D2O) in a 5-mm NMR tube. Samples for peptide interaction studies contained 0.19 mM ^13C- and ^15N-labelled PHD in NMR buffer in 3-mm NMR tubes. Lyophilized peptides were dissolved in NMR buffer including 1 mM sodium 3-(trimethylsilyl)tetradeuteriopropanionate (TSP) into 20 mM stock solutions. Upon dilution to 1 mM, all peptide solutions were at pH 7.0 in NMR buffer. Peptide concentrations were determined by comparing the integral of the Thr methyl signal (from T3, T6, and T11, total nine protons) to that of TSP using a quantitative 1D experiment (recycle delay 60 s) recorded at a Bruker Avance III 600 MHz spectrometer. Saturated complexes with H3K4me1/H3K4me2/H3K4me3 peptides with and without H3Q5ser were made by adding peptide to a 0.7 mM final concentration (3.6 equiv.). […] Additional samples were prepared using 30%, 50%, 80%, and 160% equiv. of peptide. All spectra were recorded and processed using Bruker Topspin and analysed using NMR-FAM Sparky and Poky.
For the H3K4me2 complexes, the resonance of G879 was excluded due to overlap and that of K875 was included. Spectra were processed using NMRPipe using exponential line broadening of 10/15 Hz in the direct/indirect dimension of the free induction decay before Fourier transform. Data were fit against a 1:1 binding model that also optimizes the ligand concentration to compensate for concentration errors. Fitting assumed an HSQC experiment using 1.2 ms for the first zz-filter delays and an additional 0.6 ms evolution at the start and end of t1 that accommodated the echo/anti-echo gradient. The average koff value and standard error from a bootstrap analysis based on 100 replicas are reported. The 95% confidence limits were estimated using a grid search fixing koff allowing for an ∼3% increase in the final residuals as based on the F-statistic given the degrees of freedom. For each koff value, the KD for the H3K4me3 peptide was restrained to fall within 100 and 400 nM to enforce compatibility to previous reported affinity to avoid unrealistically high fitted KD values at higher koff values. Of note, the quality of the fit at the confidence limit edges is visibly worse than the best fit, particularly for the high koff side. For the H3K4me3Q5ser peptide, no restraint on KD was necessary. For the H3K4me2 peptides, the KD was restrained to 5 μM maximum. Without these upper bounds for KD, slightly wider confidence limits for koff are found.

koff (NMR line shape fit (TITAN), 298 K, 20 mM KPi, pH 7.0, 150 mM KCl, 1:1 model, average ± standard error from bootstrap, 100 replicas, read-out: koff) [s⁻¹]	koff (NMR line shape fit (TITAN), 298 K, pH 7.0, grid search, read-out: koff 95% confidence limits) [s⁻¹]	SMILES	koff (pH 7) [s⁻¹]	koff (pH 7, read-out: koff 95% confidence limits) [s⁻¹]
		C[C@H](N)C(=O)N[C@@H](CCCNC(=N)N)C(=O)N[C@H](C(=O)N[C@@H](CCCC[N+](C)(C)C)C(=O)N[C@@H](CCC(=O)NCCc1c[nH]c2ccc(O)cc12)C(=O)N[C@H](C(=O)N[C@@H](C)C(=O)N[C@@H](CCCNC(=N)N)C(=O)N[C@@H](CCCCN)C(=O)N[C@@H](CO)C(=O)N[C@H](C(=O)NCC(N)=O)[C@@H](C)O)[C@@H](C)O)[C@@H](C)O [H3K4me3Q5ser]	16.8 ± 0.5	12 to 22
48.8 ± 1	42 to 56	C[C@H](N)C(=O)N[C@@H](CCCNC(=N)N)C(=O)N[C@H](C(=O)N[C@@H](CCCC[N+](C)(C)C)C(=O)N[C@@H](CCC(N)=O)C(=O)N[C@H](C(=O)N[C@@H](C)C(=O)N[C@@H](CCCNC(=N)N)C(=O)N[C@@H](CCCCN)C(=O)N[C@@H](CO)C(=O)N[C@H](C(=O)NCC(N)=O)[C@@H](C)O)[C@@H](C)O)[C@@H](C)O [H3K4me3]		
